The results in this text go back to patent US10464977B2 (University of Maryland, Baltimore, priority 2016, dated 2019).

The term amount remaining denotes the share of the starting amount still present when the sample was taken.

The test system of series [1] is C. albicans cells (ATCC 90028). Briefly: Degradation of peptides by whole C. albicans cells, gel densitometry. Format: in vitro ADME. The settings on record: 1×10^9 cells mL^−1, 150 μg mL^−1 peptide, 2 h, 37° C., 100 mM NaPB. As to the method:
For degradation with C. albicans, a single colony of the ATCC 90028 strain (American Type Culture Collection) was used to inoculate YPD. The culture was grown overnight, subcultured, and grown to an optical density of 1-1.2 at OD600. All incubations were done at 30° C. The cells were washed three times in 100 mM NaPB and diluted to 2×10^9 cells mL^−1. Equal volumes of cells and peptides were mixed and incubated for 2 h at 37° C. The cells were removed by centrifugation, and the supernatants were mixed with tricine sample buffer and boiled for 10 min. The samples were then run on gels and analyzed as described above for degradation by the Saps. Three biological replicates were performed.
After observing the effect of residue modifications on the cleavage of Hst-5 by the purified recombinant Saps, whether incubation of the peptides with whole C. albicans cells expressing Saps (rather than Saps produced recombinantly) would yield similar results was evaluated. Hst-5 and the synthetic peptides were incubated with C. albicans cells for 2 h at 37° C. in 100 mM NaPB. The high ionic strength of this buffer prevents internalization of the peptides by C. albicans (4) allowing analysis of degradation of the peptides without the confounding effects of peptide internalization, which would reduce the amount of peptide in the reaction buffer.

In series [2] the target is T1, Sap9 (Candida albicans, UniProt Q59SU1). The settings on record: 3.13 μg mL^−1 Sap9. As to the method: (§1) The cleavage sites of the Saps and the abundance of the fragments produced by cleavage were determined using mass spectrometry. […] The binding solution was 0.1% formic acid, and the releasing solution was 0.1% formic acid/60% acetonitrile (ACN). To ensure equal flow-through volume of each sample, 18 μL of desalted sample was aliquoted and 1 μL of the four-amino acid peptide MRFA at 0.1 mg mL^−1 was added. Samples were manually loaded through loop injection at 25 μL min^−1 with 40% ACN/0.1% formic acid. Mass spectra were acquired with a Thermo Scientific Orbitrap Fusion Lumos Tribrid mass spectrometer with data-dependent analysis at a 5 s cycle time. Manufacturer recommended source parameters for a flow rate of 25 μL min^−1 were applied. Full scan mass spectra of m z^−1 350-1550 were acquired in the orbitrap at R=120000 (m z^−1 200) with fluoranthene ion as the internal calibrant. CID and ETD fragments of the most intense ions (z>1) were recorded with the orbitrap at R=60000 (m z^−1 200). Dynamic exclusion was set at 30 s.
T1 sequence (Q59SU1 18-520): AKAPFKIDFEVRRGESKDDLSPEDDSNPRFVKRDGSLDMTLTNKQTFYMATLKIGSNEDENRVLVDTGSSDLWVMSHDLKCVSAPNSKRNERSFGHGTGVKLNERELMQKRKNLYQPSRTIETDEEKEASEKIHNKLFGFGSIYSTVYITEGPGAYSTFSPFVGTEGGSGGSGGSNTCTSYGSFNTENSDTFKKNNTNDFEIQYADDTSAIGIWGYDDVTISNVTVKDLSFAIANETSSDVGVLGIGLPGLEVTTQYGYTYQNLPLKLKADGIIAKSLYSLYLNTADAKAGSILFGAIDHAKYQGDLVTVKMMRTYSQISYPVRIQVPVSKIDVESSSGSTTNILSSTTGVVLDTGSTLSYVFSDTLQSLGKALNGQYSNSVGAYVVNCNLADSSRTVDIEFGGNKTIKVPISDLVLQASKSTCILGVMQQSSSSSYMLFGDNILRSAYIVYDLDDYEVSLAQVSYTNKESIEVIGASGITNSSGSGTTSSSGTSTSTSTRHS
(§2) The molecular weights of the peptides and their fragments were calculated from full scan MS spectra using the XTract program in the XCalibur software (Thermo Scientific). MS/MS spectra from ETD and CID fragmentation were processed using Proteome Discoverer (V2.1) with Prosight PD node to identify peptides and their degradation products. […] Intensities of identified peptides and their degradation products relative to the internal standard MRFA were obtained from the deconvoluted full scan mass spectra.
(§3) After incubation of the peptides with each Sap, the four-amino-acid peptide MRFA was added as an internal standard, and samples were directly injected into the mass spectrometer.

The target of series [3] is T1, Sap9. Briefly: in vitro. As to conditions: for degradation by Sap9 (in words): 3.13 μg mL^−1 Sap9, 150 μg mL^−1 peptide; for degradation by Sap9 (in words) / degradation at higher Sap9 concentration (in words): 2 h, 37° C.; for degradation at higher Sap9 concentration (in words): 6.25 μg mL^−1 Sap9, 150 μg mL^−1 peptide. As to the method: (§4) Experiments were done in 1 mM NaPB. The mixtures were incubated at 37° C. for 2 h, and NaPB with no Sap was used as a control. After the incubation, the samples were mixed with tricine sample buffer (without Coomassie Blue G-250, except in control samples) containing β-mercaptoethanol and boiled for 5 min at 100° C. to inactivate the proteases. The degraded and non-degraded peptides were separated by gel electrophoresis in 10-20% Tris-tricine gels (Bio-Rad), and the gels were then fixed in a 10% acetic acid/40% methanol/50% water mixture for 30 min. The fixed gels were stained with Bio-Safe Coomassie stain (Bio-Rad) for 1 h and washed with fresh water three times, once overnight and then twice for at least 2 h each time. The gels were imaged on a Chemidoc imager (Bio-Rad), and densitometric analysis was done with Image Lab software (Bio-Rad). […] Three replicates of the assay were done.
(§5) To measure the antifungal activity of the peptides following degradation by the Saps, the antifungal activity assay was performed as described above, except the peptides were first exposed to Saps. The peptide fragments were prepared by incubating each peptide (150 μg mL^−1) with 6.25 μg mL^−1 Sap9 or 18 μg mL^−1 Sap2 for 2 h at 37° C. The enzymes were then inactivated by heating at 100° C. for 5 min. As controls, each peptide was also incubated with only NaPB buffer. Samples were then stored at −20° C. until use in the antifungal activity assay.
(§6) The intact peptide was then separated from the degradation products using gel electrophoresis and quantified the level of degradation using densitometric analysis of Coomassie-stained gels.
(§7) To amplify differences in antifungal activity due to degradation by the Saps, the concentrations of the Saps was increased by at least two-fold compared to the concentrations used for the gel electrophoresis data in FIGS. 1A-1D (to 6.25 μg mL^−1 for Sap9 and 18 μg mL^−1 for Sap2).

Series [4] has as its target T2, Sap2 (Candida albicans, UniProt P0DJ06). In words: in vitro. As to the method: as §4, §5, §6, §7
The target in series [5] is T2, Sap2. The settings on record: 6.25 μg mL^−1 Sap2. The procedure:
as §1, §2, §3

In series [6] the test system is Sap2. Briefly: 6.25 μg mL^−1 Sap2 in 1 mM NaPB. The settings on record: C. albicans, 37° C., up to 2 h.
The mark [7] stands for this setting: Candida albicans, isolated enzyme.

Residues, ends and D or L forms follow the SMILES beside them. No end group written: not given here.

T2 sequence (P0DJ06 57-398): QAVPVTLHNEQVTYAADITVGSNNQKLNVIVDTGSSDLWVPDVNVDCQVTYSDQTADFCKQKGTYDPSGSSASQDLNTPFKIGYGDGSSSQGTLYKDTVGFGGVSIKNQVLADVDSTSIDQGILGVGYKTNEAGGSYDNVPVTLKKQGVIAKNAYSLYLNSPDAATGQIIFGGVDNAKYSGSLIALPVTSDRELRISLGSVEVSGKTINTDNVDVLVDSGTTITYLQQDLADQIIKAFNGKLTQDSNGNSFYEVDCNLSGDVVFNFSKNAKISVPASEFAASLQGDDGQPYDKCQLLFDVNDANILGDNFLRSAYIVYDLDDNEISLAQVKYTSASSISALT

Consider `CC(C)C[C@H](NC(=O)[C@H](CCCNC(=N)N)NC(=O)[C@H](CCCCN)NC(=O)[C@H](Cc1ccc(O)cc1)NC(=O)CNC(=O)[C@H](Cc1c[nH]cn1)NC(=O)[C@H](Cc1c[nH]cn1)NC(=O)[C@H](CCCNC(=N)N)NC(=O)[C@H](CCCCN)NC(=O)[C@H](C)NC(=O)[C@H](Cc1c[nH]cn1)NC(=O)[C@H](CO)NC(=O)[C@@H](N)CC(=O)O)C(=O)N[C@@H](Cc1ccccc1)C(=O)N[C@@H](Cc1c[nH]cn1)C(=O)N[C@@H](CCC(=O)O)C(=O)N[C@@H](CCCCN)C(=O)N[C@@H](Cc1c[nH]cn1)C(=O)N[C@@H](Cc1c[nH]cn1)C(=O)N[C@@H](CO)C(=O)N[C@@H](Cc1c[nH]cn1)C(=O)N[C@@H](CCCNC(=N)N)C(=O)NCC(=O)N[C@@H](Cc1ccc(O)cc1)C(=O)O` [Peptide K13L] (H-DSHAKRHHGYKRLFHEKHHSHRGY-OH; N-terminus and C-terminus assumed), for which the “degradation by C. albicans cells (in words)” value in series [1] is recorded as “increase in degradation compared to the parent Hst-5”. Also, in series [2], the “mass spectrometry signal of intact peptide versus fragments, Sap9” value is “apparent shift in cleavage site preference compared to the parent Hst-5”.

`CC(C)C[C@H](NC(=O)[C@H](C)NC(=O)[C@H](Cc1c[nH]cn1)NC(=O)[C@H](CO)NC(=O)[C@@H](N)CC(=O)O)C(=O)N[C@@H](CCCNC(=N)N)C(=O)N[C@@H](Cc1c[nH]cn1)C(=O)N[C@@H](Cc1c[nH]cn1)C(=O)NCC(=O)N[C@@H](Cc1ccc(O)cc1)C(=O)N[C@@H](CCCCN)C(=O)N[C@@H](CCCNC(=N)N)C(=O)N[C@@H](CCCCN)C(=O)N[C@@H](Cc1ccccc1)C(=O)N[C@@H](Cc1c[nH]cn1)C(=O)N[C@@H](CCC(=O)O)C(=O)N[C@@H](CCCCN)C(=O)N[C@@H](Cc1c[nH]cn1)C(=O)N[C@@H](Cc1c[nH]cn1)C(=O)N[C@@H](CO)C(=O)N[C@@H](Cc1c[nH]cn1)C(=O)N[C@@H](CCCNC(=N)N)C(=O)NCC(=O)N[C@@H](Cc1ccc(O)cc1)C(=O)O` [Peptide K5L] (H-DSHALRHHGYKRKFHEKHHSHRGY-OH; N-terminus and C-terminus assumed): in series [3], the “degradation by Sap9 (in words)” value is “greater degradation than their arginine-substituted counterparts or parent Hst-5” and the “degradation at higher Sap9 concentration (in words)” value is given as “not intact”. Further, the “degradation by C. albicans cells (in words)” value in series [1] is reported as “decrease in proteolysis”.

Consider `C[C@H](NC(=O)[C@H](Cc1c[nH]cn1)NC(=O)[C@H](CO)NC(=O)[C@@H](N)CC(=O)O)C(=O)N[C@@H](CCCNC(=N)N)C(=O)N[C@@H](CCCNC(=N)N)C(=O)N[C@@H](Cc1c[nH]cn1)C(=O)N[C@@H](Cc1c[nH]cn1)C(=O)NCC(=O)N[C@@H](Cc1ccc(O)cc1)C(=O)N[C@@H](CCCCN)C(=O)N[C@@H](CCCNC(=N)N)C(=O)N[C@@H](CCCCN)C(=O)N[C@@H](Cc1ccccc1)C(=O)N[C@@H](Cc1c[nH]cn1)C(=O)N[C@@H](CCC(=O)O)C(=O)N[C@@H](CCCCN)C(=O)N[C@@H](Cc1c[nH]cn1)C(=O)N[C@@H](Cc1c[nH]cn1)C(=O)N[C@@H](CO)C(=O)N[C@@H](Cc1c[nH]cn1)C(=O)N[C@@H](CCCNC(=N)N)C(=O)NCC(=O)N[C@@H](Cc1ccc(O)cc1)C(=O)O` [Peptide K5R] (H-DSHARRHHGYKRKFHEKHHSHRGY-OH; N-terminus and C-terminus assumed), for which, in series [4] (18 μg mL^−1 Sap2, 150 μg mL^−1 peptide, 2 h, 37° C.), the “intact peptide at higher Sap2 concentration (in words)” value is recorded as “no statistically significant amount of these peptides remained”. Moreover, the “degradation by C. albicans cells (in words)” value in series [1] is “no significant effect”.

As to `C[C@H](NC(=O)[C@H](Cc1cnc[nH]1)NC(=O)[C@H](CO)NC(=O)[C@@H](N)CC(=O)O)C(=O)N[C@@H](CCCCN)C(=O)N[C@@H](CCCNC(=N)N)C(=O)N[C@@H](Cc1cnc[nH]1)C(=O)N[C@@H](Cc1cnc[nH]1)C(=O)NCC(=O)N[C@@H](Cc1ccc(O)cc1)C(=O)N[C@@H](CCCCN)C(=O)N[C@@H](CCCNC(=N)N)C(=O)N[C@@H](CCCCN)C(=O)N[C@@H](Cc1ccccc1)C(=O)N[C@@H](Cc1cnc[nH]1)C(=O)N[C@@H](CCC(=O)O)C(=O)N[C@@H](CCCCN)C(=O)N[C@@H](Cc1cnc[nH]1)C(=O)N[C@@H](Cc1cnc[nH]1)C(=O)N[C@@H](CO)C(=O)N[C@@H](Cc1cnc[nH]1)C(=O)N[C@@H](CCCNC(=N)N)C(=O)NCC(=O)N[C@@H](Cc1ccc(O)cc1)C(=O)O` [Hst-5, reference compound], the fraction remaining at 2 h, 150 μg mL^−1 amounted to 61% in series [4] (setting [7]) and 47% in series [3] (setting [7]). In addition, the “mass spectrometry signal of intact peptide versus fragments, Sap2” value in series [5] was “intact peptide having the highest signal”. Moreover, in series [2], the “mass spectrometry signal of intact peptide versus fragments, Sap9” value is “signal for the degradation fragment containing amino acids 1-17 of Hst-5 was higher than the intact peptide”.

For the compound DSHAKRHHGYKRKFHELHHSHRGY, the cleaved bond result in series [6] was “L17-H18”.

In the case of `C[C@H](NC(=O)[C@H](Cc1c[nH]cn1)NC(=O)[C@H](CO)NC(=O)[C@@H](N)CC(=O)O)C(=O)N[C@@H](CCCCN)C(=O)N[C@@H](CCCNC(=N)N)C(=O)N[C@@H](Cc1c[nH]cn1)C(=O)N[C@@H](Cc1c[nH]cn1)C(=O)NCC(=O)N[C@@H](Cc1ccc(O)cc1)C(=O)N[C@@H](CCCNC(=N)N)C(=O)N[C@@H](CCCNC(=N)N)C(=O)N[C@@H](CCCCN)C(=O)N[C@@H](Cc1ccccc1)C(=O)N[C@@H](Cc1c[nH]cn1)C(=O)N[C@@H](CCC(=O)O)C(=O)N[C@@H](CCCCN)C(=O)N[C@@H](Cc1c[nH]cn1)C(=O)N[C@@H](Cc1c[nH]cn1)C(=O)N[C@@H](CO)C(=O)N[C@@H](Cc1c[nH]cn1)C(=O)N[C@@H](CCCNC(=N)N)C(=O)NCC(=O)N[C@@H](Cc1ccc(O)cc1)C(=O)O` [Peptide K11R] (H-DSHAKRHHGYRRKFHEKHHSHRGY-OH; N-terminus and C-terminus assumed), in series [3], the “degradation by Sap9 (in words)” value is given as “did not show a significant increase in resistance to the protease” and the “degradation at higher Sap9 concentration (in words)” value is reported as “significant reduction in degradation compared to Hst-5”. Besides, the “degradation by C. albicans cells (in words)” value in series [1] is on record as “did not show a significant difference in degradation of the peptide compared to Hst-5”.
